Reference: ChEMBL document CHEMBL1201862, “PubChem BioAssay data set” (2004)
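A five-concentration, 48-hour dose response in 96-well plates underlies each endpoint, interpolated linearly between surrounding concentrations. GI50 = concentration required for 50% inhibition of growth.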 Calls of active or inactive are those of the source. Rule as the data show it: active = GI50 up to about 1.1 µM and inactive = higher.

Tests used:
Assay in all cases: NCI-60 cell line screen, 48 h
786-0 = system: 786-0
A549 = system: A549
ACHN = system: ACHN
CCRF-CEM = system: CCRF-CEM
COLO 205 = system: COLO 205
DLD-1 = system: DLD-1
DMS-114 = system: DMS-114
DMS-273 = system: DMS-273
EKVX = system: EKVX
HCT-116 = system: HCT-116
HCT-15 = system: HCT-15
HOP-18 = system: HOP-18
HOP-62 = system: HOP-62
HT-29 = system: HT-29
IGROV-1 = system: IGROV-1
K562 = system: K562
KM-20L2 = system: KM-20L2
KM12 = system: KM12
LOX IMVI = system: LOX IMVI
M14 = system: M14
M19-MEL = system: M19-MEL
MOLT-4 = system: MOLT-4
Malme-3M = system: Malme-3M
NCI-H226 = system: NCI-H226
NCI-H23 = system: NCI-H23
NCI-H460 = system: NCI-H460
NCI-H522 = system: NCI-H522
OVCAR-3 = system: OVCAR-3
OVCAR-8 = system: OVCAR-8
RPMI-8226 = system: RPMI-8226
RXF 393 = system: RXF 393
SF-295 = system: SF-295
SF-539 = system: SF-539
SK-MEL-28 = system: SK-MEL-28
SK-MEL-2 = system: SK-MEL-2
SK-MEL-5 = system: SK-MEL-5
SK-OV-3 = system: SK-OV-3
SN12C = system: SN12C
SNB-19 = system: SNB-19
SNB-75 = system: SNB-75
SW-620 = system: SW-620
TK-10 = system: TK-10
U-251 = system: U-251
UACC-257 = system: UACC-257
UACC-62 = system: UACC-62
UO-31 = system: UO-31
XF498 = system: XF498
A498 = system: A498
CAKI-1 = system: CAKI-1
HCC 2998 = system: HCC 2998
HL-60 = system: HL-60
HOP-92 = system: HOP-92
LXFL 529 = system: LXFL 529
OVCAR-4 = system: OVCAR-4
OVCAR-5 = system: OVCAR-5
SF-268 = system: SF-268
SNB-78 = system: SNB-78
SR = system: SR

Measured: GI50

CC1=C(C)C(=O)c2c(cc3c4ccccc4ccn23)C1=O
> 100 µM: HCT-15
inactive: 786-0 > 100 µM | A549 > 100 µM | ACHN > 100 µM | CCRF-CEM > 10 µM | COLO 205 > 100 µM | DLD-1 > 100 µM | DMS-114 > 100 µM | DMS-273 > 100 µM | EKVX > 100 µM | HCT-116 > 10 µM | HOP-18 > 100 µM | HOP-62 > 100 µM | HT-29 > 100 µM | IGROV-1 > 100 µM | K562 > 100 µM | KM-20L2 > 100 µM | KM12 > 100 µM | LOX IMVI > 100 µM | M14 > 100 µM | M19-MEL > 100 µM | MOLT-4 > 100 µM | Malme-3M > 100 µM | NCI-H226 > 100 µM | NCI-H23 > 100 µM | NCI-H460 > 100 µM | NCI-H522 > 100 µM | OVCAR-3 > 100 µM | OVCAR-8 > 100 µM | RPMI-8226 > 100 µM | RXF 393 > 100 µM | SF-295 > 100 µM | SF-539 > 100 µM | SK-MEL-28 > 100 µM | SK-MEL-2 > 100 µM | SK-MEL-5 > 100 µM | SK-OV-3 > 100 µM | SN12C > 100 µM | SNB-19 > 100 µM | SNB-75 > 100 µM | SW-620 > 100 µM | TK-10 > 100 µM | U-251 > 100 µM | UACC-257 > 100 µM | UACC-62 > 100 µM | UO-31 > 100 µM | XF498 63.8 µM

CC1(C)C(=O)C(O)=CC2C1=CCC1C2(C)C(=O)CC2(C)C(C(C)(O)C(=O)CC(O)C(C)(C)O)C(O)CC12C (stereo not given)
3.18 µM: HCT-15
active: SNB-75 0.989 µM
inactive: 786-0 2.45 µM | A498 2 µM | A549 3.04 µM | ACHN 2.3 µM | CAKI-1 2.12 µM | CCRF-CEM 3.01 µM | COLO 205 3.67 µM | DLD-1 3.19 µM | DMS-114 6.67 µM | DMS-273 2.85 µM | EKVX 10 µM | HCC 2998 3.35 µM | HCT-116 3.97 µM | HL-60 3.17 µM | HOP-18 2.51 µM | HOP-62 4.63 µM | HOP-92 2.38 µM | HT-29 3.35 µM | IGROV-1 2.64 µM | K562 4.66 µM | KM-20L2 3.33 µM | KM12 9.14 µM | LOX IMVI 2.5 µM | LXFL 529 3.64 µM | M14 3.54 µM | M19-MEL 8.85 µM | MOLT-4 17.1 µM | Malme-3M 3.54 µM | NCI-H226 2.86 µM | NCI-H23 10.9 µM | NCI-H460 3.39 µM | NCI-H522 2.71 µM | OVCAR-3 3.28 µM | OVCAR-4 2.82 µM | OVCAR-5 25.2 µM | OVCAR-8 12.6 µM | RPMI-8226 3.4 µM | RXF 393 2.56 µM | SF-268 3.11 µM | SF-295 4.67 µM | SF-539 2.57 µM | SK-MEL-28 2.69 µM | SK-MEL-2 2.61 µM | SK-MEL-5 2.84 µM | SK-OV-3 3.72 µM | SN12C 4.98 µM | SNB-19 3.13 µM | SNB-78 3.78 µM | SR 4 µM | SW-620 3.57 µM | TK-10 2.54 µM | U-251 2.65 µM | UACC-257 3.52 µM | UACC-62 5.52 µM | UO-31 2.02 µM | XF498 3.28 µM

COC(=O)CCC(=O)Nc1cccc(C(F)(F)F)c1
inactive: 786-0 > 100 µM | A498 > 100 µM | A549 > 100 µM | ACHN > 100 µM | CAKI-1 > 100 µM | CCRF-CEM > 100 µM | COLO 205 > 100 µM | DLD-1 > 100 µM | DMS-114 > 100 µM | DMS-273 > 100 µM | EKVX > 100 µM | HCC 2998 > 100 µM | HL-60 > 100 µM | HOP-18 > 100 µM | HOP-62 > 100 µM | HOP-92 > 100 µM | HT-29 > 100 µM | IGROV-1 > 100 µM | K562 > 100 µM | KM-20L2 > 100 µM | KM12 > 100 µM | LOX IMVI > 100 µM | LXFL 529 > 100 µM | M14 > 100 µM | M19-MEL > 100 µM | MOLT-4 > 100 µM | Malme-3M > 100 µM | NCI-H23 > 100 µM | NCI-H460 > 100 µM | NCI-H522 > 100 µM | OVCAR-3 > 100 µM | OVCAR-4 > 100 µM | OVCAR-5 > 100 µM | OVCAR-8 > 100 µM | RPMI-8226 > 100 µM | RXF 393 > 100 µM | SF-268 > 100 µM | SF-295 > 100 µM | SF-539 > 100 µM | SK-MEL-28 > 100 µM | SK-MEL-2 > 100 µM | SK-MEL-5 > 100 µM | SK-OV-3 > 100 µM | SN12C > 100 µM | SNB-19 > 100 µM | SNB-75 > 74.1 µM | SNB-78 > 100 µM | SW-620 > 100 µM | TK-10 > 100 µM | U-251 > 100 µM | UACC-257 > 100 µM | UACC-62 > 100 µM | UO-31 > 100 µM | XF498 > 100 µM
> 100 µM: HCT-15
